# Assay results: ChEMBL document CHEMBL4118077, “Synthesis of thiazole linked indolyl-3-glyoxylamide derivatives as tubulin polymerization inhibitors” (Eur J Med Chem, 2017)
# Tests used:
# Sus scrofa = species on record: Sus scrofa; experiment: Inhibition of porcine brain tubulin polymerization at 5 uM measured for 1 hr by fluorescence assay relative to control
# PC-3 = experiment: Antiproliferative activity against human PC3 cells after 48 hrs by MTT assay; assay type: functional, cell-based; conditions: PC-3, 48 h
# HCT-15 = experiment: Antiproliferative activity against human HCT15 cells after 48 hrs by MTT assay; assay type: functional, cell-based; conditions: HCT-15, 48 h
# A549 = experiment: Antiproliferative activity against human A549 cells after 48 hrs by MTT assay; assay type: functional, cell-based; conditions: A549, 48 h
# DU-145 = experiment: Antiproliferative activity against human DU145 cells after 48 hrs by MTT assay; assay type: functional, cell-based; conditions: DU-145, 48 h
SMILES,inhibition (Sus scrofa),IC50 (PC-3),IC50 (HCT-15),IC50 (A549),IC50 (DU-145)
COc1cc([C@@H]2c3cc4c(cc3[C@H](O)[C@H]3COC(=O)[C@H]23)OCO4)cc(OC)c1OC,78%,,,,
O=C(Cn1cc(C(=O)C(=O)N2CCCCC2)c2ccccc21)Nc1nc(-c2ccccc2)cs1,,> 50 µM,> 50 µM,> 50 µM,25.4 µM
COc1ccc2sc(NC(=O)Cn3cc(C(=O)C(=O)Nc4ccccc4)c4cc(Br)ccc43)nc2c1,23.3%,13.6 µM,12.5 µM,> 50 µM,5.6 µM
COc1ccc2sc(NC(=O)Cn3cc(C(=O)C(=O)N4CCCCC4)c4ccccc43)nc2c1,38.5%,4.2 µM,> 50 µM,> 50 µM,6.4 µM
O=C(Cn1cc(C(=O)C(=O)Nc2ccccc2)c2ccccc21)Nc1nc(-c2ccccc2)cs1,,> 50 µM,> 50 µM,> 50 µM,34.3 µM
Cc1ccc(-c2csc(NC(=O)CCn3cc(C(=O)C(=O)N4CCCCC4)c4ccccc43)n2)cc1,,> 50 µM,> 50 µM,> 50 µM,> 50 µM
O=C(Cn1cc(C(=O)C(=O)Nc2ccccc2)c2ccccc21)Nc1nccs1,23.5%,> 50 µM,> 50 µM,20.9 µM,5.15 µM
O=C(Cn1cc(C(=O)C(=O)NC2CC2)c2ccccc21)Nc1nccs1,,> 50 µM,,> 50 µM,> 50 µM
CCOC(=O)c1nc(NC(=O)Cn2cc(C(=O)C(=O)Nc3ccccc3)c3ccccc32)sc1C,58.4%,6.1 µM,2.5 µM,6.3 µM,0.14 µM
COc1ccc2sc(NC(=O)CCn3cc(C(=O)C(=O)N4CCCCC4)c4ccccc43)nc2c1,,15.3 µM,> 50 µM,> 50 µM,12.3 µM
O=C(Cn1cc(C(=O)C(=O)N2CCCCC2)c2ccccc21)Nc1nccs1,,> 50 µM,> 50 µM,> 50 µM,> 50 µM
